Results taken from patent US20020002269A1, “ARTEMIN, A NEUROTROPHIC FACTOR” (priority 1998, published 2002).
Values belong to the molecule of their own block, whether it stands above or below them.

What was measured:
[1] = tested on: dorsal root ganglion (DRG) neurons; test: Survival of cultured dorsal root ganglion neurons; format: cell-based, rat
Procedure: Each GDNF ligand family member consisted of the human mature amino acid sequence and was produced by standard recombinant DNA methods. Recombinant GDNF, neurturin and persephin were obtained from Genentech while recombinant artemin was produced as described in Example 3.
The cultures were performed using standard methods described elsewhere (Kotzbauer et al., Neuron 12:763-773, 1994; Kotzbauer et al., Nature 384:467-470, 1996; Milbrandt et al., Neuron 20:245-253, 1998). In brief, for SCG neurons, after dissection and dissociation, neurons were plated on collagen-coated 24-well tissue culture plates and maintained in NGF-containing medium (AM50) for 5 days, after which they were either kept in AM50 or switched to medium containing neutralizing anti-NGF antibodies plus GDNF, neurturin, persephin, artemin, (50 ng/ml where not noted otherwise), or no growth factors. Cultures were maintained for 3 days, after which they were fixed in 4% paraformaldehyde and stained with toluidine blue, and surviving neurons were counted. For nodose ganglion and dorsal root ganglion neuron cultures, dissociated neurons were plated directly into NGF (for dorsal root ganglia), or BDNF (for nodose ganglia, 100 ng/ml) or one of the GDNF ligands in serum-containing medium (AM50 with anti-NGF antibodies), and cells surviving after 3 days in culture were counted as above. Trigeminal ganglia were dissected, dissociated, and plated directly into medium containing NGF or the indicated GDNF ligands, and the number of surviving cells was assessed after 3 days in vitro. For all culture systems, 2-3 independent experiments were performed.

GFRα2/RET = target: T1, GFRα2/RET (Homo sapiens, UniProt O00451+P07949); test: Ga14-Elk/Ga14-Luc reporter in RET-3T3 fibroblasts transfected with GFRα2; format: cell-based; settings: RET-3T3, 50 ng/ml for 6-8 hours, FIG. 10A
T1 construct: expressed in transfected cells; host or cells: MG87 fibroblasts stably expressing human RET (RET-3T3), transiently transfected with the CMV-GFRα2 plasmid
Procedure: (§1) Thus, to directly test which receptor combinations can form functional receptors for artemin, expression plasmids for the individual GFRA coreceptors together with the Ga14-Elk/Ga14-Luc reporter system were transiently transformed into fibroblasts that stably express RET. […]
(§2) NLF neuroblastoma cells, which naturally express GFRα2/RET (Tansey et al., submitted), or the RET-3T3 cells were plated at 85,000 cells/well in 12-well plates, and cotransfected with the reporter plasmids Ga14-Luc and CMV-Ga14-Elk (250 ng/well and 50 ng/well, respectively), CMV-lacZ (50 ng/well) for transfection normalization, one of the CMV-GFRA expression plasmids (500 ng/well), and pBluescript (650 ng/well) as carrier for a total of 1.5 μg DNA/well using the Superfect reagent (Qiagen) according to the manufacturer's instructions. […] Measurement of luciferase and β-galactosidase activity was measured using a luminometer and performed as described (Svaren et al., EMBO J 17:6010-6019, 1998). The average luciferase activity of duplicate samples was normalized to β-galactosidase activity of the cotransformed lacZ reporter, and fold activation was calculated by dividing the normalized activity in factor-treated cells by that in the no treatment control.

GFRα1-Fc = test: Direct binding of soluble GFRα1-Fc receptor body to plate-coated ligand; settings: ligand coated at 325 ng/ml, absence of RET, FIG. 9C
Procedure: To investigate which if any of the known coreceptor(s) artemin can utilize to activate RET, its ability to directly bind to soluble Fc-fusion forms of GFRα1, GFRα2, or GFRα3 was assessed. GFRα1-Fc, GFRα2-Fc and GFRα3-Fc fusion proteins were obtained from R&D Systems. Binding assays were performed similarly to assays previously described (Sanicola et al., Proc. Natl. Acad. Sci., USA 94:6238-6243, 1997). Recombinant GDNF, neurturin, artemin, persephin, or purified bovine serum albumin (BSA; Pierce) were coated to Nunc-Immuno MaxiSorp microtiter plates at 325 ng/ml in TBS (10 mM Tris-HCl pH 7.5, 150 mM NaCl) for 1 hour at 25° C. Plates were washed (3× in TBS/0.03% Tween-20), and then blocked (blocking solution: TBS/1% BSA) for 1 hr at 25° C. Receptor bodies diluted in blocking solution were added and incubated for 2 hr at 25° C., washed 5X, then incubated with 1:10,000 dilution of HRP-conjugated anti-human Fc antibodies in blocking solution (Jackson Immunoresearch) for 45 minutes at 25° C. Finally, wells were washed 5× and the presence of HRP was assayed by addition of the chromogenic substrate 3,3, 5,5-tetramethylbenzidine for 5 min. The reaction was stopped by adding an equal volume of 0.5M H2SO4, and color was measured in a plate reader at 450 nm. Non-specific binding of receptor bodies to the plates was measured in BSA coated wells, and this binding was subtracted from all other measurements.

[2] = tested on: CHP126 neuroblastoma cell line; test: Responsiveness of a neuroblastoma cell line that does not express RET (CHP126); format: cell-based; settings: data not shown
[3] = tested on: NLF cells transformed with GFRα3; test: Ga14-Elk/Ga14-Luc reporter in NLF neuroblastoma cells transformed with GFRα3; format: cell-based; settings: factor for 24 hours, low-serum medium, FIG. 10B
Procedure: as §1, §2

[4] = 50 ng/ml, 3 days in culture, FIG. 7A

T1 sequence (O00451 22-444 limits assumed): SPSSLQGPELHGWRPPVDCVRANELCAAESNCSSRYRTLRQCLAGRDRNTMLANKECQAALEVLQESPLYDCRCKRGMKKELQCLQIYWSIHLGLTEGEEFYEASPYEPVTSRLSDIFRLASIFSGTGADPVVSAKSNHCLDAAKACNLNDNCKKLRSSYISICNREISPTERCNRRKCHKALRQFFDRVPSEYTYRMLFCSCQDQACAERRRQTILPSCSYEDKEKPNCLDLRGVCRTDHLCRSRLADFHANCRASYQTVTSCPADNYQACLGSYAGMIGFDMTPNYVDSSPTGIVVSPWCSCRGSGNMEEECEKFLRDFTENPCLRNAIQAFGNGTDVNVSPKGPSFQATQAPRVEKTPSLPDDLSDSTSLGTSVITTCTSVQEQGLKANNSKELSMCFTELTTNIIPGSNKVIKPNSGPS
T1 sequence (P07949 29-1114): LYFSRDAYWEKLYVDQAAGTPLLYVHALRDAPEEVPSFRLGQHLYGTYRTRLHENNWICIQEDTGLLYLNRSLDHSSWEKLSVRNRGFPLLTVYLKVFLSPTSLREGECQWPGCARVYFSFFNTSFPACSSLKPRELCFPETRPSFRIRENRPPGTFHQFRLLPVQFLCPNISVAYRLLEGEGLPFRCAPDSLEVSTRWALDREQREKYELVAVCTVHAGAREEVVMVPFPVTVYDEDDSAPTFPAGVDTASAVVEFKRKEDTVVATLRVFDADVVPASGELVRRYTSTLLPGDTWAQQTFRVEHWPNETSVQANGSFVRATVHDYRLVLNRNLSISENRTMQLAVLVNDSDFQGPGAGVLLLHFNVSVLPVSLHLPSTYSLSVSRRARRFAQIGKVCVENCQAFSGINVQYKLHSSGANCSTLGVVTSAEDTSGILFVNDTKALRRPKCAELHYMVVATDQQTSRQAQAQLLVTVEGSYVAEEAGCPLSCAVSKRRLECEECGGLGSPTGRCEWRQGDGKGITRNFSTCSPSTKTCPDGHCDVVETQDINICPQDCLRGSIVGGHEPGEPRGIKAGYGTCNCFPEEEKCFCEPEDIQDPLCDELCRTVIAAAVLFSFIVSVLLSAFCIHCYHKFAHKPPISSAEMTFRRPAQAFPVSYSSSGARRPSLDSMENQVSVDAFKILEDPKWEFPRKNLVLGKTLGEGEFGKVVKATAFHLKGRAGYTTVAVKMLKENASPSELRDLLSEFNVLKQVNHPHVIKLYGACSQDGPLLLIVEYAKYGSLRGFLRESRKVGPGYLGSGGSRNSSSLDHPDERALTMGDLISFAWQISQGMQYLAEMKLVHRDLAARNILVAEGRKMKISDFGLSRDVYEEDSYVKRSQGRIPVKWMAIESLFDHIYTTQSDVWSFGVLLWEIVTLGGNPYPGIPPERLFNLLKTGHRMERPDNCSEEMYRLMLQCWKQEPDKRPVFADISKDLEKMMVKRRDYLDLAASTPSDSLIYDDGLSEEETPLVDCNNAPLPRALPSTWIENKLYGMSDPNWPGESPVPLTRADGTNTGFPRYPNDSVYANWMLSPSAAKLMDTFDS

Molecule: artemin: recombinant mature human artemin (FIG. 3A, SEQ ID NO:3) with 8-histidine tag, produced in E. coli; GDNF family neurotrophic factor
- survival of DRG sensory neurons [1, 4]: supported the survival of a subset of sensory neurons
- number of DRG neurons supported compared with GDNF or neurturin ([1]; 50 ng/ml, FIG. 7A): supported a larger number of neurons than GDNF or neurturin
- EC50 of survival promoting effect on DRG neurons ([1]; dose response, P1 rat DRG neurons, 3 days in culture, FIG. 7B): 1 to 3 ng/mL
- EC50 ([1]; dose response, P1 rat DRG neurons, molar figure, FIG. 7B, read-out: EC50 of survival promoting effect on DRG neurons): ~0.1 nM
- activation of RET signaling in cells expressing GFRα2/RET (luciferase reporter) (GFRα2/RET): not GFRα2/RET
- direct binding of GFRα1-Fc (GFRα1-Fc): not to persephin or artemin
- response of CHP126 cells [2]: did not respond
- response of NLF cells transformed with GFRα3 (luciferase reporter) [3]: allowed the cells to respond to artemin stimulation

- activation of RET signaling in cells expressing GFRα2/RET (luciferase reporter) (GFRα2/RET): activated RET signaling
B1: GDNF: recombinant human mature GDNF obtained from Genentech (protein, UniProt P39905 78-211, looked up)
Glial cell line-derived …: SPDKQMAVLPRRERNRQAAAANPENSRGKGRRGQRGKNRGCVLTAIHLNVTDLGLGYETKEELIFRYCSGSCDAAETTYDKILKNLSRNRRLVSDKVGQACCRPIAFDDDLSFLDDNLVYHILRKHSAKRCGCI
- survival of DRG sensory neurons [1, 4]: supported the survival of a subset of sensory neurons
- direct binding of GFRα1-Fc (GFRα1-Fc): able to bind to both GDNF and neurturin with similar affinity
- response of CHP126 cells [2]: did not respond
- response of NLF cells transformed with GFRα3 (luciferase reporter) [3]: decreased the ability of the cells to respond to GDNF
